Measured values reported in patent US20030166922A1, “Novel cephalosporin compounds and process for preparing the same” (priority 2000, published 2003).
≈ marks a conversion by molar mass, not a printed value.

Experiments:
Assay in all cases: Minimum Inhibitory Concentration (MIC), agar dilution, standard strains
E. faecalis EFS004 = assay type: cell-based; conditions: Table 2; Mueller-Hinton agar, 37° C., 20 hours
Protocol: (§1) Minimum Inhibitory Concentration (MIC)
(§2) The effectiveness of the compound according to the present invention was determined by obtaining Minimum Inhibitory Concentration (MIC) of the compounds prepared by the above Examples (I-1 to I-33) and vancomycin, which is the known compound having a potent activity against gram-positive strains, as the control drug against the standard strains. Specifically, Minimum Inhibitory Concentration was obtained by diluting the test material with a double dilution method, dispersing them in Mueller-Hinton agar medium, inoculating each of the test strain having 10^7 cfu (colny forming unit) in an amount of 2:1 to the medium and then incubating them at 37° C. for 20 hours.

S. epidermidis R005 = assay type: cell-based; conditions: Mueller-Hinton agar, 37° C., 20 hours
Protocol: as §1, §2

[1] = tested on: Staphylococcus aureus giorgio; assay type: cell-based; conditions: Mueller-Hinton agar, 37° C., 20 hours; for Minimum Inhibitory Concentration (MIC), S. aureus giorgio: Table 2; for Minimum Inhibitory Concentration (MIC), Staphylococcus aureus giorgio: Table 1
Protocol: as §1, §2

S. aureus 77 = assay type: cell-based, Staphylococcus aureus; conditions: Mueller-Hinton agar, 37° C., 20 hours
Protocol: as §1, §2

S. aureus K311 = assay type: cell-based, Staphylococcus aureus; conditions: Table 2; Mueller-Hinton agar, 37° C., 20 hours
Protocol: as §1, §2

E. faecalis L239 = assay type: cell-based; conditions: Table 1; Mueller-Hinton agar, 37° C., 20 hours
Protocol: as §1, §2

S. aureus 241 = assay type: cell-based, Staphylococcus aureus; conditions: Table 1; Mueller-Hinton agar, 37° C., 20 hours
Protocol: as §1, §2

Compound	Minimum Inhibitory Concentration (MIC), E. faecalis EFS004 (E. faecalis EFS004)	MIC (S. epidermidis R005; Staphylococcus epidermidis, R005, Table 2, read-out: Minimum Inhibitory Concentration (MIC), S. epidermidis R005)	Minimum Inhibitory Concentration (MIC), S. aureus giorgio [1]	MIC (S. aureus 77; Staphylococcus aureus, 77, Table 2, read-out: Minimum Inhibitory Concentration (MIC), S. aureus 77)	Minimum Inhibitory Concentration (MIC), S. aureus K311 (S. aureus K311)	Minimum Inhibitory Concentration (MIC), S. epidermidis R005 (S. epidermidis R005; Table 2)	Minimum Inhibitory Concentration (MIC), S. aureus 77 (S. aureus 77; Table 2)	Minimum Inhibitory Concentration (MIC), E. faecalis L239 (E. faecalis L239)	Minimum Inhibitory Concentration (MIC), S. epidermidis R005 (S. epidermidis R005; Table 1)	Minimum Inhibitory Concentration (MIC), Staphylococcus aureus giorgio [1]	Minimum Inhibitory Concentration (MIC), S. aureus 241 (S. aureus 241)	Minimum Inhibitory Concentration (MIC), S. aureus 77 (S. aureus 77; Table 1)
Nc1nc(O)cc(SCSC2=C(C(=O)O)N3C(=O)[C@@H](NC(=O)CSc4cc(Cl)nc(Cl)c4)[C@H]3SC2)n1 [Example I-28, (6R,7R)-3-({[(2-amino-6-hydroxy-4-pyrimidinyl)sulfanyl]methyl}sulfanyl)-7-({2-[(2,6-dic hloro-4-pyridinyl)sulfanyl]acetyl}amino)-8-oxo-5-thia-1-azabicyclo[4.2.0]-oct-2-ene-2-car boxylic acid]	1 :g/ml	0.25 µg/mL (≈ 0.411 µM)	0.031 :g/ml	0.25 µg/mL (≈ 0.411 µM)	0.5 :g/ml	–	–	–	–	–	–	–
CCSc1nc(C)cc(SCSC2=C(C(=O)O)N3C(=O)[C@@H](NC(=O)CSc4cc(Cl)nc(Cl)c4)[C@H]3SC2)n1 [Example I-29, (6R,7R)-7-({2-[(2,6-dichloro-4-pyridinyl)sulfanyl]acetyl}amino)-3-[({[2-(ethylsulfanyl)-6-methyl-4-pyrimidinyl]sulfanyl)methyl]sulfanyl}-8-oxo-5-thia-1-azabicy-clo[4.2.0]oct-2-ene-2-carboxylic acid]	0.25 :g/ml	–	0.031 :g/ml	–	2 :g/ml	1 :g/ml	0.5 :g/ml	–	–	–	–	–
Cc1c(N)nc(SCSC2=C(C(=O)O)N3C(=O)[C@@H](NC(=O)CSc4cc(Cl)ccc4Cl)[C@H]3SC2)nc1N [Example I-18, (6R,7R)-3-({[(4,6-diamino-5-methyl-2-pyrimidinyl)sulfanyl]methyl}sulfan-yl)-7-({2-[(2,5-dichlorophenyl)sulfanyl]acetyl}amino)-8-oxo-5-thia-1-azabicyclo[4.2.0]oc-t-2-ene-2-carb oxylic acid]	–	–	–	–	–	–	–	0.5 :g/ml	0.25 :g/ml	0.016 :g/ml	4 :g/ml	0.25 :g/ml
CCSc1nc(C)cc(SCSC2=C(C(=O)O)N3C(=O)[C@@H](NC(=O)CSc4cc(Cl)ccc4Cl)[C@H]3SC2)n1 [Example I-12, (6R,7R)-7-({2-[(2,5-dichlorophenyl)sulfanyl]acetyl}amino)-3-[({[2-(ethylsul-fanyl)-6-methyl-4-pyrimidinyl]sulfanyl}methyl)sulfanyl]-8-oxo-5-thia-1-azabicyclo[4.2. 0]oct-2-ene-2-carboxylic acid]	–	–	–	–	–	–	–	0.25 :g/ml	0.5 :g/ml	0.031 :g/ml	4 :g/ml	0.5 :g/ml
Nc1cc(SCSC2=C(C(=O)O)N3C(=O)[C@@H](NC(=O)CNc4cc(Cl)ccc4Cl)[C@H]3SC2)nc(N)n1 [Example I-5]	–	–	–	–	–	–	–	1 :g/ml	0.5 :g/ml	0.016 :g/ml	8 :g/ml	0.5 :g/ml
Nc1nc(SCSC2=C(C(=O)O)N3C(=O)[C@@H](NC(=O)CSc4cc(Cl)ccc4Cl)[C@H]3SC2)nc2cn[nH]c12 [Example I-13, (6R,7R)-3-({[(7-amino-1H-pyrazolo [4,3-d]pyrimidin-5-yl)sulfanyl]methy-1}sulfanyl)-7-({2-[(2,5-dichlorophenyl)sulfanyl]acetyl}amino)-8-oxo-5-thia-1-azabicyc-lo[4.2.0]oct-2-ene-2-carboxylic acid]	–	–	–	–	–	–	–	0.25 :g/ml	0.13 :g/ml	<0.008 :g/ml	2 :g/ml	0.13 :g/ml
Nc1cc[n+](N)c(SCSC2=C(C(=O)O)N3C(=O)[C@@H](NC(=O)CSc4cc(Cl)ccc4Cl)[C@H]3SC2)n1 [Example I-7, 1,4-diamino-2-[({[(6R,7R)-2-carboxy-7-({2-[(2,5-dichlorophenyl)sulfanyl]ac-etyl}amino)-8-oxo-5-thia-1-azabicyclo[4.2.0]oct-2-en-3-yl)sulfanyl}methyl)sulfanyl]pyri-midin-1-ium]	–	–	–	–	–	–	–	0.13 :g/ml	0.063 :g/ml	<0.008 :g/ml	2 :g/ml	0.13 :g/ml
Nc1nc(SCSC2=C(C(=O)O)N3C(=O)[C@@H](NC(=O)CSc4cc(Cl)ccc4Cl)[C@H]3SC2)c2c([n+]1N)CCC2 [Example I-11, (6R,7R)-1 ,2-diamino-4-[({(E)-3-[2-carboxy-7-({2-[(2,5-dichlorophenyl)sulf-anyl]acetyl}amino)-8-oxo-5-thia-1-azabicyclo[4.2.0]oct-2-en-3-yl]sulfanyl}methyl)sulfan-yl]-6,7-dihyd ro-5H-cyclopenta[d]pyrimidin-1-ium]	–	–	–	–	–	–	–	0.25 :g/ml	0.063 :g/ml	<0.008 :g/ml	1 :g/ml	0.063 :g/ml
CN(CC(=O)N[C@@H]1C(=O)N2C(C(=O)O)=C(SCSc3cc(N)nc(N)n3)CS[C@H]12)c1cc(Cl)ccc1Cl [Example I-6, (6R,7R)-3-({[(2,6-diamino-4-pyrimidinyl)sulfanyl]methyl}sulfanyl)-7-({2-[2,5-dichloro(methyl)anilino]acetyl}amino)-8-oxo-5-thia-1-azabicyclo[4.2.0]oct-2-ene-2-carboxylic acid]	–	–	–	–	–	–	–	4 :g/ml	0.5 :g/ml	0.031 :g/ml	8 :g/ml	0.5 :g/ml
(6R,7R)-2,4-diamino-6-[({[2-carboxy-7-({2-[(2,5-dichlorophenyl)sulfany-1]acetyl}amino)-8-oxo-5-thia-1-azabicyclo[4.2.0]oct-2-en-3-yl]sulfanyl}methyl)sulfanyl]-1-methylpyrimidi n-1-ium [Example I-15]	–	–	–	–	–	–	–	0.25 :g/ml	0.13 :g/ml	<0.008 :g/ml	1 :g/ml	0.13 :g/ml
